The values below come from publication PMC7691349, “Roles of two glutathione S-transferases in the final step of the β-aryl ether cleavage pathway in Sphingobium sp. strain SYK-6” (Scientific Reports, 2020).

One assay deals with T1, LigF (Sphingobium sp. SYK-6, UniProt P30347).
T1 construct: full length in pET-16b (pET08650), His-tagged, E. coli BL21(DE3), His SpinTrap purified
T1 sequence (P30347 1-257): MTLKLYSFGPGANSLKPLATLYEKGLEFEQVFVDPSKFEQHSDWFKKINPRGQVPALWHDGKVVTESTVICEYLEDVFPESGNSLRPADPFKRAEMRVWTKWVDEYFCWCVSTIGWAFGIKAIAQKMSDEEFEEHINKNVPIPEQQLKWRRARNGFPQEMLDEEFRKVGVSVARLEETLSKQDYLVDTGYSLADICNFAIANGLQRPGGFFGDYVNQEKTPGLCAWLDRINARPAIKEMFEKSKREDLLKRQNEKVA
The assay is described as follows: chiral HPLC of MPHPV conversion. It counts as biochemical. The settings on record: 400 µM racemic MPHPV; 5 mM GSH; 50 mM Tris-HCl pH 7.5; 30 °C; 60 min.

A further assay deals with T2, LigE (Sphingobium sp. SYK-6, UniProt P27457).
T2 construct: full length in pET-16b (pET08660), His-tagged, E. coli BL21(DE3), His SpinTrap purified
T2 sequence (P27457 1-281 limits assumed): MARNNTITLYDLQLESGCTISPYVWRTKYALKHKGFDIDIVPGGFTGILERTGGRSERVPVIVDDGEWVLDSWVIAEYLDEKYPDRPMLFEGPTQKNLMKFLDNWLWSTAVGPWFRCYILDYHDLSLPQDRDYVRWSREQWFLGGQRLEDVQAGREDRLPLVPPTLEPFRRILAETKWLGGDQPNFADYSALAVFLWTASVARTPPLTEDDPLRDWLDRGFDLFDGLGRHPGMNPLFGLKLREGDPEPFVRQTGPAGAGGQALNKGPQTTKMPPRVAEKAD
The assay is described as follows: chiral HPLC of MPHPV conversion. It counts as biochemical. As to conditions: 400 µM racemic MPHPV; 5 mM GSH; 50 mM Tris-HCl pH 7.5; 30 °C; 60 min.

On to `COc1cc(C(=O)[C@H](CO)Oc2ccccc2OC)ccc1O` [(βS)-MPHPV], for which, at LigF, the “chiral HPLC of MPHPV conversion” value was “LigF and LigE completely converted (βS)-MPHPV and (βR)-MPHPV, respectively”.
For `COc1cc(C(=O)[C@@H](CO)Oc2ccccc2OC)ccc1O` [(βR)-MPHPV], the “chiral HPLC of MPHPV conversion” value on LigE was “LigF and LigE completely converted (βS)-MPHPV and (βR)-MPHPV, respectively”.
